Laboratory results published in ChEMBL document CHEMBL1201862, “PubChem BioAssay data set” (2004).
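Tested at 5 concentrations; 48 h exposure; 96-well plates; endpoints linearly interpolated, else capped at highest concentration. GI50 = concentration required for 50% inhibition of growth.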 Active and inactive are the calls of the source. No stated cut-off is given here; in the data, active = GI50 up to about 1.1 µM and inactive = higher.

Experiments:
Assay in all cases: NCI tumour cell line growth inhibition, 48 h
MDA-N = tested on: MDA-N
A549 = tested on: A549
NCI-H522 = tested on: NCI-H522
NCI-H460 = tested on: NCI-H460
786-0 = tested on: 786-0
PC-3 = tested on: PC-3
Malme-3M = tested on: Malme-3M
NCI-H23 = tested on: NCI-H23
NCI-H226 = tested on: NCI-H226
OVCAR-8 = tested on: OVCAR-8
HT-29 = tested on: HT-29
HCT-15 = tested on: HCT-15
OVCAR-3 = tested on: OVCAR-3
HL-60 = tested on: HL-60
MDA-MB-435 = tested on: MDA-MB-435
K562 = tested on: K562
A498 = tested on: A498
SK-MEL-28 = tested on: SK-MEL-28
UACC-62 = tested on: UACC-62
SF-295 = tested on: SF-295

| SMILES | GI50 (MDA-N) | GI50 (A549) | GI50 (NCI-H522) | GI50 (NCI-H460) | GI50 (786-0) | GI50 (PC-3) | GI50 (Malme-3M) | GI50 (NCI-H23) | GI50 (NCI-H226) | GI50 (OVCAR-8) | GI50 (HT-29) | GI50 (HCT-15) | GI50 (OVCAR-3) | GI50 (HL-60) | GI50 (MDA-MB-435) | GI50 (K562) | GI50 (A498) | GI50 (SK-MEL-28) | GI50 (UACC-62) | GI50 (SF-295) |
| --- | --- | --- | --- | --- | --- | --- | --- | --- | --- | --- | --- | --- | --- | --- | --- | --- | --- | --- | --- | --- |
| CCOC(=O)c1nc2cc(F)c(N3CCOCC3)cc2[nH]c1=O | > 100 µM (inactive) | > 100 µM (inactive) | 76 µM (inactive) | > 100 µM (inactive) | > 100 µM (inactive) | > 100 µM (inactive) | > 100 µM (inactive) | > 100 µM (inactive) | 90.8 µM (inactive) | > 100 µM (inactive) | > 100 µM (inactive) | > 100 µM | > 100 µM (inactive) | 47.5 µM (inactive) | > 100 µM (inactive) | > 100 µM (inactive) | > 100 µM (inactive) | > 100 µM (inactive) | > 100 µM (inactive) | > 100 µM (inactive) |
| CC(=O)N1CN2C(=O)CCC2c2ccccc21 (stereo not given) | > 100 µM (inactive) | > 100 µM (inactive) | > 100 µM (inactive) | > 100 µM (inactive) | > 100 µM (inactive) | > 100 µM (inactive) | > 100 µM (inactive) | > 100 µM (inactive) | > 100 µM (inactive) | > 100 µM (inactive) | > 100 µM (inactive) | > 100 µM | > 100 µM (inactive) | > 10 µM (inactive) | > 100 µM (inactive) | > 100 µM (inactive) | > 100 µM (inactive) | > 100 µM (inactive) | > 100 µM (inactive) | > 100 µM (inactive) |
| COc1ccc(C(O)CNC(=O)c2ccccc2)cc1 (stereo not given) | > 100 µM (inactive) | > 100 µM (inactive) | > 100 µM (inactive) | > 100 µM (inactive) | > 100 µM (inactive) | > 100 µM (inactive) | > 100 µM (inactive) | > 100 µM (inactive) | > 100 µM (inactive) | > 100 µM (inactive) | > 100 µM (inactive) | > 100 µM | > 100 µM (inactive) | > 100 µM (inactive) | > 100 µM (inactive) | > 100 µM (inactive) | > 100 µM (inactive) | > 100 µM (inactive) | > 100 µM (inactive) | > 100 µM (inactive) |
| c1ccc(C2=NNC3c4ccccc4-c4ccccc4N3C2)cc1 (stereo not given) | 33.5 µM (inactive) | 32.7 µM (inactive) | 26.1 µM (inactive) | 21.9 µM (inactive) | 50 µM (inactive) | 23.7 µM (inactive) | 30.3 µM (inactive) | 26.1 µM (inactive) | 26.9 µM (inactive) | 33.8 µM (inactive) | 39.5 µM (inactive) | 48.4 µM | 37.5 µM (inactive) | 2.08 µM (inactive) | 27.8 µM (inactive) | 23.9 µM (inactive) | 30 µM (inactive) | 35.6 µM (inactive) | 16.4 µM (inactive) | 35.6 µM (inactive) |
| COc1cccc(CCn2c(N)c(-c3cc(Cl)cc(Cl)c3)c3ccc([N+](=O)[O-])cc3c2=O)c1 | 4.53 µM (inactive) | 4.76 µM (inactive) | 2.92 µM (inactive) | 3.04 µM (inactive) | 4.91 µM (inactive) | 3.1 µM (inactive) | 2.83 µM (inactive) | 2.35 µM (inactive) | 3.67 µM (inactive) | 3.81 µM (inactive) | 5.52 µM (inactive) | 3.19 µM | 3.13 µM (inactive) | 0.811 µM (active) | 3.57 µM (inactive) | 1.75 µM (inactive) | 3.56 µM (inactive) | 4.84 µM (inactive) | 3.33 µM (inactive) | 3.73 µM (inactive) |
| Cc1ccc2c3c1O[C@H]1c4[nH]c5ccccc5c4C[C@@]4(O)[C@@H](C2)N(CC2CC2)CC[C@]314 | 16.2 µM (inactive) | 14.7 µM (inactive) | 15 µM (inactive) | 15.2 µM (inactive) | 13.8 µM (inactive) | 12.1 µM (inactive) | 14.5 µM (inactive) | 19.7 µM (inactive) | 14.9 µM (inactive) | 15.3 µM (inactive) | 4.42 µM (inactive) | 12.7 µM | 14.4 µM (inactive) | 5.3 µM (inactive) | 13.7 µM (inactive) | 15.5 µM (inactive) | 17.1 µM (inactive) | 12.6 µM (inactive) | 16 µM (inactive) | 17.4 µM (inactive) |
